# Data published in patent US20250312355A1, “DHCR24 INHIBITORY COMPOUNDS” (ACADEMISCH ZIEKENHUIS LEIDEN (H.O.D.N. LUMC), priority 2022, published 2025).
# Where two headings read alike, the source gives them in different places.
# How the values were obtained:
# HL-60 cells = assay: IC50 determination: incorporation of 13C-acetate into cholesterol in HL-60 cells (GC-MS); type: cell-based; details: Homo sapiens, read-out: HL60 assay activity
# Procedure: Two test concentrations (1 μM and 50 μM) were used. The compounds were dissolved in ethanol or DMSO and the testing-stock solutions are prepared taking a final dilution of 1:100 into account. Ultimately 10 μL of testing stock solution were added to 990 μL of lipid-free medium containing 1% lipoprotein deficient serum (LPDS) without antibiotics. HL-60 cells (1×10^6 cells) were incubated in 24-well plates in 1.0 mL of medium consisting of 990 μL of lipid free medium with 1% LPDS and 10 μL of respective inhibitor solution.
# For IC50 determination, the incorporation of labelled acetate in the target molecule cholesterol is being assessed and the protocol is altered in the following manner: to each well 10 μL of a sterile sodium 2-^13C-acetate solution (6.25 mg/mL) were added before the addition of the inhibitor solution, leading to a final ^13C-acetate concentration of 62.5 μg/mL. After saponification 3×25 μL aliquots are taken for protein determination applying the Bradford reagent. After work-up and silylation, GC-MS analysis allows the quantification ^13C incorporation into cholesterol according to the below given formula. The percentage inhibition (see formula) relative to untreated control samples (0% inhibition) was plotted against the logarithmic inhibitor concentration using Graph Pad Prism 4 (or higher). A bottom level constant equal to 0 is set as constraint using a sigmoidal dose-response model with a various slope. All samples are normalised to their protein. For each concentration the inhibitory percentage is determined in triplicate.
# The above formula is the calculation formula for the percentage inhibition, where AS represents the area sample; AI.S.C. represents the area internal standard control; PCC represents the protein content control; AC represents the area control; AI.S.S. represents the area internal standard sample; and PCs represents the protein content sample.
# male E3L.CETP mice [1] = assay: E3L.CETP mice on high fat high cholesterol diet, SH42 for 8 weeks (hepatic steatosis, lipidomics, immunohistochemistry, plasma lipids); type: in vivo
# male E3L.CETP mice [2] = assay: Rescue experiment: E3L.CETP mice on HFCD for 10 weeks, then SH42 for additional 8 weeks; type: in vivo
# Description: Hemizygous APOE*3-Leiden (E3L) mice were crossbred with homozygous human cholesteryl ester transfer protein (CETP) transgenic mice to generate heterozygous E3L.CETP mice on a C57BL/6J background [M. Westerterp et al., “Cholesteryl ester transfer protein decreases high-density lipoprotein and severely aggravates atherosclerosis in APOE*3-Leiden mice”; Arterioscler Thromb Vasc Biol 26, 2552-2559 (2006)]. Because of phenotypical heterogeneity of E3L. CETP mice, non-responder mice were identified by 4-hour fasting plasma lipid levels, i.e., total cholesterol levels <2 mM and triglyceride levels <2 mM, and excluded before special diet treatment. LXRα-deficient mice (also on C57BL/6J background), generated by Deltagen using gene-targeting methods as described [T. Plosch et al., “Abcg5/Abcg8-independent pathways contribute to hepatobiliary cholesterol secretion in mice”; Am J Physiol Gastrointest Liver Physiol, 291, G414-423 (2006)(33)] were provided by Tularik (San Francisco, CA, US). Mice were group-housed in individually ventilated cages in standard conditions at room temperature (22° C.) with 40±5% relative humidity and a 12-h light/dark (7 am lights on; 7 pm lights off) cycle. All animals received humane care according to the criteria outlined in the NIH “Guide for the Care and Use of Laboratory Animals”. All animal procedures were performed in conformance with the guidelines from Directive 2010/63/EU of the European Parliament on the protection of animals used for scientific purposes.
# At the age of 10-12 weeks, male E3L.CETP mice and LXRα-deficient mice were fed a high fat high cholesterol diet (HFCD; Altromin, Germany) containing 60% (energy) fat and 1% (wt/wt) cholesterol, and were randomized into two groups treated with either the DHCR24 inhibitor compound of Example 11 [also referred to herein as SH42] (0.5 mg·mouse^−1) or vehicle (saline containing 3.3% ethanol and 3.3% Cremophor EL) 3 times per week by intraperitoneal injection. E3L.CETP mice were treated for 4 weeks (n=6 mice per group) and 8 weeks (n=8 mice per group) to evaluate effects on hepatic immune cells via flow cytometry analysis and hepatic steatosis via quantitative lipidomic analysis, respectively. LXRα-deficient mice were treated with either SH42 (n=11 mice) or vehicle (n=10 mice) for 4 weeks to evaluate effects on hepatic steatosis and immune cells. In a rescue experiment, male E3L.CETP mice were fed with HFCD for 10 weeks first and cotreated with SH42 (0.5 mg mouse^−1) or vehicle (saline containing 3.3% ethanol and 3.3% Cremophor EL) 3 times per week by intraperitoneal injection for additional 8 weeks.
# Body weight was measured weekly. Body composition (i.e. fat body and lean body mass; EchoMRI-100; EchoMRI, Houston, TX, USA) was evaluated before and after intervention. Food intake was determined during the treatment period.
# male E3L.CETP mice [3] = assay: E3L.CETP mice on HFCD, SH42 for 4 weeks, flow cytometry of hepatic immune cells; type: in vivo
# Description: Hemizygous APOE*3-Leiden […]) mice were crossbred with homozygous human cholesteryl ester transfer protein (CETP) transgenic mice to generate heterozygous E3L.CETP mice on a C57BL/6J background [[…] al., “Cholesteryl ester transfer protein decreases high-density lipoprotein and severely aggravates atherosclerosis in APOE*3-Leiden mice”; Arterioscler Thromb Vasc Biol 26, 2552-2559 (2006)]. Because of phenotypical heterogeneity of E3L. CETP mice, non-responder mice were identified by 4-hour fasting plasma lipid levels, i.e., total cholesterol levels <2 mM and triglyceride levels <2 mM, and excluded before special diet treatment. LXRα-deficient mice (also on C57BL/6J background), generated by Deltagen using gene-targeting methods as described [T. Plosch et al., “Abcg5/Abcg8-independent pathways contribute to hepatobiliary cholesterol secretion in mice”; Am J Physiol Gastrointest Liver Physiol, 291, […]-423 (2006)(33)] were provided by Tularik (San Francisco, CA, US). […] All animals received humane care according to the criteria outlined in the NIH “Guide for the Care and Use of Laboratory Animals”. All animal procedures were performed in conformance with the guidelines from Directive 2010/63/EU of the European Parliament on the protection of animals used for scientific purposes. At the age of 10-12 weeks, male E3L.CETP mice and LXRα-deficient mice were fed a high fat high cholesterol diet (HFCD; […] LXRα-deficient mice were treated with either SH42 (n=11 mice) or vehicle (n=10 mice) for 4 weeks to evaluate effects on hepatic steatosis and immune cells. In a rescue experiment, male E3L.CETP mice were fed with HFCD for 10 weeks first and cotreated with SH42 (0.5 mg mouse^-1) or vehicle (saline containing 3.3% ethanol and 3.3% Cremophor EL) 3 times per week by intraperitoneal injection for additional 8 weeks.
# [4] = HL-60 cells, 24 h, 13C-acetate incorporation into cholesterol
# [5] = 8 weeks, absolute concentration
# [6] = after 8 weeks of treatment, vs control group
# [7] = 10 weeks HFCD, then 8 weeks treatment
compound,measurement,setting,value
C[C@H](CO)C1CCC2C3CC=C4C[C@@H](O)CC[C@]4(C)C3CC[C@@]21C (some centres unmarked) [Example 29],IC50,"HL-60 cells; HL-60, 24 h",0.003 µM
C[C@H](CSSc1ccccn1)C1CCC2C3=CCC4C[C@@H](O)CC[C@]4(C)C3CC[C@@]21C (some centres unmarked) [Example 5],IC50,HL-60 cells; [4],0.417 µM
"C[C@H](CO)C1CCC2c3ccc4c(c3CC[C@@]21C)CC[C@H](O)C4 (stereo partly drawn) [Example 33, (3S,20S)-20-(Hydroxymethyl)-pregn-5,7,9-trien-3-ol]",IC50,HL-60 cells; [4],0.175 µM
"C=C(F)C(=O)N(C)C[C@@H](C)[C@H]1CC[C@H]2C3=CCC4C[C@@H](OC(C)=O)CC[C@]4(C)[C@H]3CC[C@]12C (stereo partly drawn) [Example 37, (3S,20S)-20-[(2-Fluoro-N-methylacrylamido)methyl]-pregn-7-en-3-yl Acetate]",IC50,HL-60 cells; [4],0.11 µM
"C[C@@H](CO)[C@H]1CC[C@H]2C3=CCC4C[C@@H](O)CC[C@]4(C)[C@H]3CC[C@]12C (stereo partly drawn) [Example 30, (3S,20R)-20-(Hydroxymethyl)-pregn-7-en-3-ol]",IC50,"HL-60 cells; HL-60, 24 h",0.3 µM
"C=C(F)C(=O)OC[C@@H](C)C1CCC2c3ccc4c(c3CC[C@@]21C)CC[C@H](OC(C)=O)C4 (stereo partly drawn) [Example 35, (3S,20S)-20-[(2-Fluoroacryloyloxy)methyl]-pregn-5,7,9-trien-3-yl Acetate]",IC50,HL-60 cells; [4],0.13 µM
CC(=O)O[C@H]1CC[C@@]2(C)C(CC=C3C2CC[C@@]2(C)C3CCC2[C@H](C)COC=O)C1 (some centres unmarked) [Example 11],food intake,"male E3L.CETP mice [1]; 0.5 mg/mouse i.p. 3 times per week, 8 weeks, vs vehicle",did not affect
same,HFCD-induced body weight gain,"male E3L.CETP mice [1]; 0.5 mg/mouse i.p. 3 times per week, vs control group",temporarily preventing
same,fasting plasma glucose,male E3L.CETP mice [1]; 8 weeks,did not affect
same,fasting plasma insulin,male E3L.CETP mice [1]; 8 weeks,did not affect
same,homeostatic Model Assessment for Insulin Resistance (HOMA-IR) scores,male E3L.CETP mice [1]; 8 weeks,did not affect
same,"weight of various tissues (liver, white adipose tissue, kidney, heart, lung, spleen, brown adipose tissue)",male E3L.CETP mice [1]; 8 weeks,unchanged
same,"plasma levels of FFA, change",male E3L.CETP mice [1]; [5],−16%
same,plasma levels of total DAG,male E3L.CETP mice [1]; [5],did not affect
same,plasma levels of total TAG,male E3L.CETP mice [1]; [5],did not affect
same,"plasma levels of CE, change","male E3L.CETP mice [1]; 8 weeks, absolute concentration, p=0.08",−24%
same,"hepatic F4/80 content, change","male E3L.CETP mice [1]; 8 weeks, immunohistochemistry",−29%
same,"number of hepatic crown-like structures, change","male E3L.CETP mice [1]; 8 weeks, immunohistochemistry",−79%
same,"hepatic free fatty acids (FFA), change","male E3L.CETP mice [1]; 8 weeks, liver",−16%
same,"other liver lipid classes, including CER, PC, PE and SM (relative)","male E3L.CETP mice [1]; 8 weeks, liver lipidomics",relative increase
same,relative reduction of DAG in liver lipid class composition,"male E3L.CETP mice [1]; 8 weeks, liver lipidomics",−22%
same,relative reduction of TAG in liver lipid class composition,"male E3L.CETP mice [1]; 8 weeks, liver lipidomics",−21%
same,increase of hepatic desmosterol levels,"male E3L.CETP mice [1]; 8 weeks, liver, vs vehicle",10 fold
same,"circulating CE (relative, plasma lipidome)","male E3L.CETP mice [1]; 8 weeks, plasma",relatively decreased
same,"lactosylceramides (LCER), phosphatidylcholine (PC) and phosphatidylethanolamine (PE) (relative, plasma lipidome)","male E3L.CETP mice [1]; 8 weeks, plasma",relatively increasing
same,"hepatic steatosis score (HE staining), change","male E3L.CETP mice [1]; 8 weeks, vs control treatment",−58%
same,"liver lipid area, change","male E3L.CETP mice [1]; 8 weeks, vs control treatment",−35%
same,body composition (lean body mass and fat body mass),male E3L.CETP mice [1]; [6],comparable to that of the control group
same,body weight,male E3L.CETP mice [1]; [6],comparable to that of the control group
same,plasma desmosterol levels,"male E3L.CETP mice [1]; plasma, from undetectable levels (<0.5 μg·mL^−1)",3.1 ± 0.4 µg/mL
same,body composition,male E3L.CETP mice [2]; [7],did not significantly influence
same,"collagen content (liver fibrosis), change",male E3L.CETP mice [2]; [7],−50%
same,"hepatic crown-like structures, change",male E3L.CETP mice [2]; [7],−89%
same,hepatic steatosis,male E3L.CETP mice [2]; [7],No difference
same,increase in plasma desmosterol levels,male E3L.CETP mice [2]; [7],> 400 fold
same,liver weight,male E3L.CETP mice [2]; [7],No difference
same,"plasma alanine transaminase (ALT), change",male E3L.CETP mice [2]; [7],−42%
same,total body weight,male E3L.CETP mice [2]; [7],did not significantly influence
same,F4/80 positive area,"male E3L.CETP mice [2]; mouse, in vivo",without significant influence
same,circulating neutrophils,male E3L.CETP mice [3],without affecting
same,"hepatic neutrophils, change",male E3L.CETP mice [3],−50%
same,"monocytes in liver, change",male E3L.CETP mice [3],−79%
same,MHCII+/CD11c+ activated KCs,male E3L.CETP mice [3]; flow cytometry,did not significantly reduce
same,"MHCII−/CD11c− resting KCs, change",male E3L.CETP mice [3]; flow cytometry,+21%
same,"total Kupffer cells (KCs), change",male E3L.CETP mice [3]; flow cytometry,+44%
same,"total hepatic leukocytes, change","male E3L.CETP mice [3]; flow cytometry, p=0.09",−37%
same,"monocytes in blood, change",male E3L.CETP mice [3]; p=0.06,−43%
CC(=O)O[C@H]1CC[C@@]2(C)C(CC=C3C2CC[C@@]2(C)C3CCC2[C@H](C)COC(=O)CN(C)C)C1 (some centres unmarked) [Example 25],IC50,"HL-60 cells; HL-60, 24 h",0.006 µM
"CC(=O)O[C@H]1CC[C@@]2(C)C(CC=C3[C@@H]4CC[C@H]([C@H](C)CCOC=O)[C@@]4(C)CC[C@@H]32)C1 (stereo partly drawn) [Example 34, (3S,20R)-20-(2-Formyloxyethyl)-pregn-7-en-3-yl Acetate]",IC50,HL-60 cells; [4],1 µM
"C[C@H](CO)[C@H]1CC[C@H]2C3=CCC4C[C@H](O)CC[C@]4(C)[C@H]3CC[C@]12C (stereo partly drawn) [Example 31, (3R,20S)-20-(Hydroxymethyl)-pregn-7-en-3-ol]",IC50,"HL-60 cells; HL-60, 24 h",0.28 µM
